Assays:
IL-23 release = IL-23 release from human dendritic cells; format: cell-based; conditions: Dendritic cell, at 10 μM, read-out: inhibition of IL-23 release (plateau)
Protocol: PBMCs were purified using Histopaque (Sigma-Aldrich, St. Louis, MO, USA). CD14^+ cells were positively selected in a magnetic field (magnetic-activated cell sorting [MACS]; Miltenyi Biotec, Bergisch Gladbach, Germany). Purified CD14^+ cells were subsequently cultured for 7 days in differentiation medium (RPMI 1640 + 10% FBS, granulocyte-macrophage colony-stimulating factor 50 ng/ml and IL-4 100 ng/ml) and then stimulated with LPS (10 ng/ml), R848 2.5 μg/ml and PGE2 10 nM for 24 h in the presence of CR6086 (0.01–30 μM) or naproxen (1–30 μM). IL-23 release was measured by enzyme-linked immunosorbent assay (ELISA) (R&D Systems, Minneapolis, MN, USA).

IL-17 release = IL-17 release from human Th17 cells; format: cell-based; conditions: 1–10 μM
Protocol: PBMCs were purified using Histopaque. CD4^+CD45^+ naive T cells were indirectly selected in a magnetic field (MACS; Miltenyi Biotec). Purified CD4^+ cells were subsequently cultured for 7 days in differentiation medium (RPMI 1640 + FBS 10%, IL-6 30 ng/ml, transforming growth factor [TGF]-β 2.25 ng/ml, IL-23 30 ng/ml, IL-1β 20 ng/ml, anti-interferon (IFN)-γ 1 ng/ml and anti-IL-4 2.5 ng/ml). Th17 cell expansion was stimulated by addition of anti-CD3/[…]anti-CD28 beads to the medium with a cell-to-beads ratio of 1:2. Th17 cells were stimulated with IL-6 30 ng/ml, TGF-β 2.25 ng/ml, IL-23 30 ng/ml, IL-1β 20 ng/ml and PGE2 10 nM for 48 h in the presence of CR6086 (0.03–10 μM) or naproxen (1–10 μM). IL-17 release was measured by ELISA (Abcam, Cambridge, UK).

[1] = system: arthritic mice (collagen-induced arthritis model); assay: CIA in mice, first study: clinical score and paw swelling; format: in vivo, mouse; conditions: 10 days; CR6086 30 and 60 mg/kg, naproxen 60 mg/kg oral once daily; etanercept 10 mg/kg i.p. every other day
Protocol: Male DBA/1 mice were immunised by intradermal injection at the base of the tail with an emulsion of 200 μg of bCII in CFA containing 3 mg/ml Mycobacterium tuberculosis. Non-immunised mice served as the negative control of disease. Animals were monitored by visual inspection for appearance of peripheral oedema. […] Upon onset, animals were recruited and randomised. Recruitment was given a cut-off at day 40. Upon recruitment, arthritis clinical score was assigned, and oedema was measured via caliper.
(§1) In a first study, mice were randomised into the following treatment groups: vehicle, 30 mg/kg CR6086, 60 mg/kg CR6086, 60 mg/kg naproxen and 10 mg/kg etanercept. Animals received the test drugs for 10 days. CR6086 and naproxen were administered orally once daily, whereas etanercept was administered intraperitoneally every other day. Animals treated with vehicle, 60 mg/kg CR6086, naproxen and etanercept were additionally analysed for the proportion of populations of Th17 cells, Th1 cells, regulatory T cells, B cells, macrophages, neutrophils and dendritic cells by fluorescence-activated cell sorting (FACS) after collection of blood, draining lymph nodes and joints.
Oedema measurement was performed every day before treatment, and all animals were blindly scored for clinical signs of arthritis as follows: 0 = normal; 1 = slight swelling and/or erythema; 2 = pronounced oedematous swelling; and 3 = ankyloses and severe swelling. A score of 0.5 was given to swollen toe/toes or when inflammation was localised to one part of the foot. Each limb was measured separately, with a final score based on the sum of the scores from all four paws.

[2] = system: arthritic mice (collagen-induced arthritis model); assay: FACS analysis of cell populations in the joint, CIA mice; format: in vivo, mouse; conditions: CR6086 60 mg/kg, naproxen 60 mg/kg, etanercept 10 mg/kg, mean ± SEM
Protocol: as §1

[3] = system: arthritic mice (collagen-induced arthritis model); assay: CIA in mice, second study: serum cytokines and signal limb histology; format: in vivo, mouse; conditions: 60 mg/kg oral daily, 10 days; mean ± SEM
mouse arthritis models = system: mouse arthritis models; design: method as in FDA pharmacological review; conditions: ref FDA pharmacological review; cited from earlier work
rat arthritis models = system: rat arthritis models; design: method as in FDA pharmacological review; conditions: ref FDA pharmacological review; cited from earlier work

Row | SMILES | inhibition at 10 µM (IL-23 release) | effect on IL-17 release (IL-17 release) | effect on disease parameters (visual clinical score, paw swelling) vs vehicle [1] | B cells, Percentage of total cells [2] | Dendritic cells, Percentage of total cells [2] | Macrophages, Percentage of total cells [2] | Neutrophils, Percentage of total cells [2] | Th1, Percentage of total cells [2] | Th17, Percentage of total cells [2] | Treg, Percentage of total cells [2] | IFNγ serum concentration [3] | IL-10 serum concentration [3] | IL-17 serum concentration [3] | TNFα serum concentration [3] | potency in mouse arthritis models (mouse arthritis models) | potency in rat arthritis models (rat arthritis models)
1 | COc1ccc2cc([C@H](C)C(=O)O)ccc2c1 [Naproxen, naproxen, reference compound] | ~50% | inactive | ineffective | 5.77 ± 1.16% | 1.96 ± 0.48% | 16.31 ± 4.44% | 16.47 ± 4.48% | 0.35 ± 0.07% | 0.21 ± 0.08% | 0.63 ± 0.22% | 3.48 ± 1.10 pg/mL | 16.21 ± 2.23 pg/mL | 2.58 ± 0.43 pg/mL | 43.01 ± 4.55 pg/mL | – | –
2 | C[C@@H]1CCN(C(=O)CC#N)C[C@@H]1N(C)c1ncnc2[nH]ccc12 [tofacitinib] | – | – | – | – | – | – | – | – | – | – | – | – | – | – | 50 mg/kg | 6.2 mg/kg

Reference: publication PMC5831858, “Pharmacological characterisation of CR6086, a potent prostaglandin E2 receptor 4 antagonist, as a new potential disease-modifying anti-rheumatic drug” (Arthritis Research & Therapy, 2018)
